We go through 24 molecules from publication PMC12154443, “Design, Synthesis, Anti-Tumor Activity and Molecular Docking Studies of Novel Triphenylphosphine-Containing Formononetin Derivatives” (International Journal of Molecular Sciences, 2025).

For data set [1], the system named is human gastric cancer cells (HGC-27). In words: MTT cell viability assay, HGC-27. Type of data set: cell-based. The conditions noted are these: 48 h, HGC-27 cells, read-out: half inhibitory concentration (IC50), HGC-27. Here is the method:
(§1) The human embryonic kidney cells (HEK-293), human non-small-cell lung cancer (A549), human breast cancer cells (MCF-7), and human prostate cancer (PC-3M) cells used in this study were obtained from the Beijing BNCC Biotechnology Research Institute (Beijing, China), and human gastric cancer cells (HGC-27) were obtained from Dalian Meilun Biotechnology Co., Ltd. (Dalian, China).
(§2) The cell lines used in this study (A549, MCF-7, PC-3M, HGC-27, HEK-293) were removed from the CO2 incubator and seeded into 96-well plates at a density of 5 × 10^4/mL. Following a 24-h incubation period under standard CO2 conditions, we added […] of sample solutions at various concentrations ([…], 12.5, 25, 50, 100 μmol/L) to each well. Each concentration was tested in six replicates. The control group received 0.1% DMSO in serum-free medium (SFM). After 48 h of the drug effect, 10 µL of MTT solution was added to each well under light-avoidance conditions, and incubation was continued under light-avoidance conditions for 4 h; the supernatant was discarded, and 150 μL of DMSO was added to dissolve the resulting formazan crystals. After 10 min of shaking to ensure the complete dissolution and uniform color development of purple crystals, the absorbance (OD) was measured at 490 nm using a microplate reader.
(§3) The inhibition rate was calculated as: Inhibition rate (%) = [(OD value of control group-OD value of administered group)/(OD value of control group-OD value of zeroing group)] × 100%, where OD value of zeroing group represents the zeroing group.
(§4) The IC50 values of the drugs were calculated by fitting using GraphPad Prism v.6.01 (GraphPad Software, San Diego, CA, USA), and it was used as a criterion for selecting the appropriate drug concentration for subsequent experiments.

Data set [2] relates to human non-small-cell lung cancer (A549). In words: MTT cell viability assay, A549. In kind it is cell-based. The conditions noted are these: A549 cells; for IC50: Homo sapiens, MTT, 48 h, read-out: half inhibitory concentration (IC50), A549; for increase in cytostatic effect relative to formononetin: from IC50 values. Here is the method: The human embryonic kidney cells (HEK-293), human non-small-cell lung cancer (A549), human breast cancer cells (MCF-7), and human prostate cancer (PC-3M) cells used in this study were obtained from the Beijing BNCC Biotechnology Research Institute (Beijing, China), and human gastric cancer cells (HGC-27) were obtained from Dalian Meilun Biotechnology Co., Ltd. (Dalian, China). […] Each concentration was tested in six replicates. The control group received 0.1% DMSO in serum-free medium (SFM). […] The inhibition rate was calculated as: Inhibition rate (%) = [(OD value of control group-OD value of administered group)/(OD value of control group-OD value of zeroing group)] × 100%, where OD value of zeroing group represents the zeroing group.
On the technique in general: Tetrazolium assays rely on reduction of a dye to a coloured formazan, in cell work by metabolically active cells.

For data set [3], the system named is human embryonic kidney cells (HEK-293). Nature of the data set: MTT cell viability assay, normal HEK-293 cells. In kind it is cell-based. Particulars: HEK293, 48 h, read-out: half inhibitory concentration (IC50), HEK-293. Here is the method:
as §1, §2, §3, §4

In data set [4] the test system is human breast cancer cells (MCF-7). In words: MTT cell viability assay, MCF-7. In kind it is cell-based. Here is the method: as §1, §2, §3, §4
Data set [5] relates to human prostate cancer (PC-3M) cells. Nature of the data set: MTT cell viability assay, PC-3M. In kind it is cell-based. Particulars: 48 h, read-out: half inhibitory concentration (IC50), PC-3M. Here is the method: as §1, §2, §3, §4
Data set [6] in a line: Solubility observed during the experimental process. Type of data set: physicochemical. The conditions noted are these: room temperature, formononetin in water, methanol, ethanol, acetone, tetrahydrofuran, ethyl acetate, dichloromethane, chloroform, derivatives in acetate. As to the method:
Therefore, using procedures reported in the previous studies, we employed a molar ratio of 1:3 between the intermediate and triphenylphosphine. […] For the synthesis of fatty acid esters, dichloromethane was employed as the reaction solvent, and a 1.5-fold molar excess of the corresponding acid was added. The reaction was conducted over a 1–4 h period, which enabled the complete conversion of formononetin and maximum yield. […] The introduction of triphenylphosphine […].

Where [7] appears, read: MCF7, 48 h, MCF-7 cells, read-out: half inhibitory concentration (IC50), MCF-7.
Setting [8] is: MCF7, MCF-7 cells, read-out: IC50 against MCF-7 cells.

Where two headings read alike, the source gives them in different places.

As for `COc1ccc(-c2coc3cc(OC(=O)CCCCCCCBr)ccc3c2=O)cc1` [1c, 7-O-(8-bromooctanoyl)-formononetin], the results for the IC50 in data set [1], in data set [2] and in data set [3] were 31.4 ± 4.93 µM, above 100 µM and 68 ± 5.33 µM, respectively.
Take `CCCCCCCCCC(=O)Oc1ccc2c(=O)c(-c3ccc(OC)cc3)coc2c1` [3e, 7-O-n-decanoyl-formononetin]: the IC50 in data set [1] was 48.6 ± 5.3 µM; in data set [2], 74 ± 11.9 µM.
Take `COc1ccc(-c2coc3cc(OC(=O)CCCCCBr)ccc3c2=O)cc1` [1a, 7-O-(6-bromohexanoyl)-formononetin]: the values for the IC50 in data set [1] and in data set [3] were 83.3 ± 8.32 µM and 83.4 ± 8.61 µM, respectively.
Turning to `COc1cccc2c1C(=O)c1c(O)c3c(c(O)c1C2=O)C[C@@](O)(C(=O)CO)C[C@@H]3O[C@H]1C[C@H](N)[C@H](O)[C@H](C)O1` [DOX, doxorubicin, reference compound], the IC50 in data set [1] came to 5.97 ± 0.43 µM; in data set [4] (setting [7]), 13.2 ± 0.43 µM; in data set [2] it was 15.4 ± 1.06 µM; in data set [5] it was 0.168 ± 0.06 µM.
For the molecule `COc1ccc(-c2coc3cc(OC(=O)CCCCCCCCBr)ccc3c2=O)cc1` [1d, 7-O-(9-bromononanoi)-formononetin], the IC50 stood at 79.2 ± 9.27 µM in data set [1], 86.2 ± 6.1 µM in data set [2] and 74.4 ± 4.28 µM in data set [3].
With `COc1ccc(-c2coc3cc(O)ccc3c2=O)cc1` [FMN, formononetin], the IC50 is 29.6 ± 1.17 µM in data set [1]; above 100 µM in data set [4] (setting [8]); 83 ± 6.25 µM in data set [2]; 76.4 ± 6.47 µM in data set [5]; 39.6 ± 3.26 µM in data set [3]. For the same molecule, the “solubility (observation)” value in data set [6] is recorded as “almost no solubility”.
As to `COc1ccc(-c2coc3cc(OC(=O)CCCCCCCCCC[P+](c4ccccc4)(c4ccccc4)c4ccccc4)ccc3c2=O)cc1` [2f, 7-O-(11-bromoundecanoyl)-formononetin-triphenylphosphine coupling], the IC50 in data set [1] came out at 30.4 ± 2.12 µM; in data set [4] (setting [7]), 52.3 ± 6.85 µM; in data set [2], 20.6 ± 1.21 µM; in data set [5] it was 27.9 ± 2.69 µM; in data set [3], 51.7 ± 5.48 µM. The “increase in cytostatic effect relative to formononetin” value in data set [2] is on record as around 7 fold.
For `CCCCCCCCC(=O)Oc1ccc2c(=O)c(-c3ccc(OC)cc3)coc2c1` [3d, 7-O-nonanoyl-formononetin], the IC50 in data set [1] came to 80.2 ± 4.8 µM; in data set [2], 78.1 ± 6.21 µM; in data set [5], 58.3 ± 5.36 µM; in data set [3] it was 78.3 ± 9.74 µM.
On to `COc1ccc(-c2coc3cc(OC(=O)CCCCC[P+](c4ccccc4)(c4ccccc4)c4ccccc4)ccc3c2=O)cc1` [2a, 7-O-(6-bromohexanoyl)-formononetin-triphenylphosphine coupling], for which the IC50 was determined as 13.4 ± 2.77 µM in data set [1]; 72.8 ± 6.25 µM in data set [4] (setting [7]); 28.8 ± 2.45 µM in data set [2]; 55.2 ± 4.4 µM in data set [5]; 44.8 ± 2.39 µM in data set [3].
Consider `COc1ccc(-c2coc3cc(OC(=O)CCCCCCCCCBr)ccc3c2=O)cc1` [1e, 7-O-(10-bromodecanoyl)-formononetin], for which the IC50 in data set [1] amounted to 66.1 ± 7.33 µM; in data set [2] it was 65.4 ± 5.01 µM; in data set [5] it was 84 ± 11 µM; in data set [3], 95.1 ± 7.97 µM.
As for `COc1ccc(-c2coc3cc(OC(=O)CCCCCCCCCCC[P+](c4ccccc4)(c4ccccc4)c4ccccc4)ccc3c2=O)cc1` [2g, 7-O-(12-bromododecanoyl)-formononetin-triphenylphosphine coupling], the IC50 in data set [1] is 29.4 ± 2.52 µM; in data set [4] (setting [7]), 46.6 ± 4.95 µM; in data set [2] it was 23.6 ± 2.25 µM; in data set [5] it was 41.2 ± 4.4 µM; in data set [3], 59.6 ± 5.65 µM. Moreover, the “increase in cytostatic effect relative to formononetin” value in data set [2] is recorded as around 7 fold.
For the molecule `CCCCCC(=O)Oc1ccc2c(=O)c(-c3ccc(OC)cc3)coc2c1` [3a, 7-O-hexanoyl-formononetin], the IC50 in data set [1] is 49.5 ± 3.35 µM; in data set [5], 62 ± 8.71 µM.
Turning to `COc1ccc(-c2coc3cc(OC(=O)CCCCCCCCCCCBr)ccc3c2=O)cc1` [1g, 7-O-(12-bromododecanoyl)-formononetin], the IC50 in data set [1] was 95.5 ± 6.23 µM; in data set [2], 53.6 ± 5.15 µM; in data set [5], above 100 µM; in data set [3] it was 59.9 ± 7.79 µM.
For the molecule `O=c1[nH]cc(F)c(=O)[nH]1` [5-FU, 5-fluorouracil, reference compound], the IC50 in data set [1] was 36.2 ± 3.02 µM; in data set [4] (setting [8]), above 100 µM; in data set [2] it was 22.9 ± 3.54 µM; in data set [5] it was 48.1 ± 3.76 µM; in data set [3], above 100 µM.
`COc1ccc(-c2coc3cc(OC(=O)CCCCCCBr)ccc3c2=O)cc1` [1b, 7-O-(7-bromoheptanoyl)-formononetin]: the IC50 in data set [1] was 79.1 ± 5.65 µM; in data set [3] it was 70.7 ± 5.61 µM.
Take `COc1ccc(-c2coc3cc(OC(=O)CCCCCCCCCCBr)ccc3c2=O)cc1` [1f, 7-O-(11-bromoundecanoyl)-formononetin]: the IC50 in data set [1] amounted to 55.6 ± 2.43 µM; in data set [2], 74.6 ± 11.4 µM; in data set [3], 95.7 ± 8.09 µM.
In the case of `CCCCCCC(=O)Oc1ccc2c(=O)c(-c3ccc(OC)cc3)coc2c1` [3b], the results for the IC50 in data set [1] and in data set [2] were 65.4 ± 3.88 µM and 96.4 ± 7.37 µM, respectively.
As to `COc1ccc(-c2coc3cc(OC(=O)CCCCCCC[P+](c4ccccc4)(c4ccccc4)c4ccccc4)ccc3c2=O)cc1` [2c, 7-O-(8-bromooctanoyl)-formononetin-triphenylphosphine coupling], the IC50 is 18.6 ± 1.6 µM in data set [1]; 42.6 ± 9.44 µM in data set [4] (setting [7]); 12.2 ± 1.52 µM in data set [2]; 21.7 ± 1.25 µM in data set [5]; 77 ± 8.26 µM in data set [3]. Besides, in data set [2], the “increase in cytostatic effect relative to formononetin” value is around 7 fold.
As for `CCCCCCCC(=O)Oc1ccc2c(=O)c(-c3ccc(OC)cc3)coc2c1` [3c, 7-O-octanoyl-formononetin], the IC50 in data set [1] came out at 60 ± 7.82 µM; in data set [2], 83 ± 5.89 µM.
As for `COc1ccc(-c2coc3cc(OC(=O)CCCCCCCCC[P+](c4ccccc4)(c4ccccc4)c4ccccc4)ccc3c2=O)cc1` [2e, 7-O-(10-bromodecanoyl)-formononetin-triphenylphosphine coupling], the IC50 in data set [1] stood at 39.2 ± 2.68 µM; in data set [4] (setting [7]) it was 85.5 ± 4.99 µM; in data set [2], 39 ± 1.65 µM; in data set [5] it was 97.9 ± 6.33 µM; in data set [3], 64 ± 3.47 µM.
Consider `COc1ccc(-c2coc3cc(OC(=O)CCCCCC[P+](c4ccccc4)(c4ccccc4)c4ccccc4)ccc3c2=O)cc1` [2b, 7-O-(7-bromoheptanoyl)-formononetin-triphenylphosphine coupling], for which the IC50 in data set [1] came to 32.1 ± 5.96 µM; in data set [4] (setting [7]) it was 46.5 ± 4.94 µM; in data set [2], 42.2 ± 3.69 µM; in data set [5], 69.2 ± 3.98 µM; in data set [3], 46.2 ± 3.99 µM.
The corresponding values for `CCCCCCCCCCC(=O)Oc1ccc2c(=O)c(-c3ccc(OC)cc3)coc2c1` [3f, 7-O-undecanoyl-formononetin] are 45.4 ± 5.24 µM, 85 ± 5.74 µM, 70.1 ± 9.67 µM, 46.7 ± 9.24 µM and 75 ± 5.49 µM.
For `CCCCCCCCCCCC(=O)Oc1ccc2c(=O)c(-c3ccc(OC)cc3)coc2c1` [3g, 7-O-dodecanoyl-formononetin], the IC50 amounted to 67.8 ± 8.92 µM in data set [4] (setting [7]), 66.9 ± 9.7 µM in data set [2], 50.4 ± 5.78 µM in data set [5] and 50.4 ± 6.13 µM in data set [3].
For `COc1ccc(-c2coc3cc(OC(=O)CCCCCCCC[P+](c4ccccc4)(c4ccccc4)c4ccccc4)ccc3c2=O)cc1` [2d, 7-O-(9-bromononanoyl)-formononetin-triphenylphosphine coupling], the IC50 in data set [1] stood at 29.1 ± 2.58 µM; in data set [4] (setting [7]), 56.8 ± 4.04 µM; in data set [2], 31.2 ± 4.4 µM; in data set [5], 67 ± 6.97 µM; in data set [3], 47 ± 8.41 µM.
